Assay: Hygroscopicity of oleyl phosphocholine (water absorption)
Assay type: physicochemical
Conditions: exposed to 90% RH at 25° C.
Experimental: The development of solid dosage formulations of oleyl phosphocholine, and specifically the development of tablets, is complicated by the low melting point (56.3° C.), high hygroscopicity (absorbing 41.67 weight percent of water when exposed to 90% RH at 25° C.) and irregular particle size and shape of oleyl phosphocholine. These characteristics make it hard to obtain homogeneous, dry powders for tableting.

In the case of `CCCCCCCC/C=C\CCCCCCCCOP(=O)([O-])OCC[N+](C)(C)C` [oleyl phosphocholine], the “hygroscopicity: water absorbed” value is reported as 41.67 weight percent.
